ChEMBL document CHEMBL1201862, “PubChem BioAssay data set” (2004)
Active and inactive are the calls of the source.

What was measured:
[1] = target: T1, Heat shock factor protein 1 (Mus musculus, UniProt P38532); assay: inhibition of MG132-induced HSE-luciferase signal, confirmation, cell-based, NIH3T3, luminescence, dose retest (AID 2382); type: functional;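 also: NIH3T3 fibroblasts with HSF1-driven luciferase reporter stressed by proteasome inhibitor MG132; luminescence from HSF1-driven luciferase expression after 8 hours of MG132 stress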
T1 sequence (P38532 whole entry): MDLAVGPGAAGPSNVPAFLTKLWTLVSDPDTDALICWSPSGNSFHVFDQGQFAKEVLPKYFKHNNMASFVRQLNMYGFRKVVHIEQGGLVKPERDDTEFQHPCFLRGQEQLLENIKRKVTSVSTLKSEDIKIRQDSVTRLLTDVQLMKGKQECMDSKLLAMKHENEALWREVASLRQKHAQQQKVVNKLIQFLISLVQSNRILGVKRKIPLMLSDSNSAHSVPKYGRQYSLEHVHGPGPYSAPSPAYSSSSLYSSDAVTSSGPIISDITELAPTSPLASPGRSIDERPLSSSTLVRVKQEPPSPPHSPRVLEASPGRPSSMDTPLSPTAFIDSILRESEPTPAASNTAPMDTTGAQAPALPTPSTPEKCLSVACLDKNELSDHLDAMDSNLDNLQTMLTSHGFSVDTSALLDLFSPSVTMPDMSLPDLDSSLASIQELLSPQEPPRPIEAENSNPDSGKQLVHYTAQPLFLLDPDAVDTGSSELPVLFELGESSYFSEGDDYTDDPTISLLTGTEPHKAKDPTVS

Cytochrome P450 2D6 = Cytochrome P450 2D6 (Homo sapiens, UniProt P10635);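 also: CYP2D6 member of a cytochrome P450 panel assay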
Chain of Cytochrome P450 2D6 (P10635 whole entry): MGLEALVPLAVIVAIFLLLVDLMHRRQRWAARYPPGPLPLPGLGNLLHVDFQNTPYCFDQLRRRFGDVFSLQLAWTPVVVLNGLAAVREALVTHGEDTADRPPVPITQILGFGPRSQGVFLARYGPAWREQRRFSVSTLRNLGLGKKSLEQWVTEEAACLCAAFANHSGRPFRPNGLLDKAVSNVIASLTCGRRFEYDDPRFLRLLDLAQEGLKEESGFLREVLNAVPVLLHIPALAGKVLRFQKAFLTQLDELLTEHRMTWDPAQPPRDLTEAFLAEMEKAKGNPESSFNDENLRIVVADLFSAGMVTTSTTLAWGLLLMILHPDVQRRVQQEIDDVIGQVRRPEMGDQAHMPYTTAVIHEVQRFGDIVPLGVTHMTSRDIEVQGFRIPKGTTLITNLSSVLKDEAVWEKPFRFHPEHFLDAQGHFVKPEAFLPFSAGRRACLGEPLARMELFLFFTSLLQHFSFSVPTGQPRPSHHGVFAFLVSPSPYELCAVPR

Cytochrome P450 1A2 = target: T2, Cytochrome P450 1A2 (Homo sapiens, UniProt P05177);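 also: PubChem cytochrome P450 panel assay, CYP1A2 panel member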
T2 sequence (P05177 whole entry): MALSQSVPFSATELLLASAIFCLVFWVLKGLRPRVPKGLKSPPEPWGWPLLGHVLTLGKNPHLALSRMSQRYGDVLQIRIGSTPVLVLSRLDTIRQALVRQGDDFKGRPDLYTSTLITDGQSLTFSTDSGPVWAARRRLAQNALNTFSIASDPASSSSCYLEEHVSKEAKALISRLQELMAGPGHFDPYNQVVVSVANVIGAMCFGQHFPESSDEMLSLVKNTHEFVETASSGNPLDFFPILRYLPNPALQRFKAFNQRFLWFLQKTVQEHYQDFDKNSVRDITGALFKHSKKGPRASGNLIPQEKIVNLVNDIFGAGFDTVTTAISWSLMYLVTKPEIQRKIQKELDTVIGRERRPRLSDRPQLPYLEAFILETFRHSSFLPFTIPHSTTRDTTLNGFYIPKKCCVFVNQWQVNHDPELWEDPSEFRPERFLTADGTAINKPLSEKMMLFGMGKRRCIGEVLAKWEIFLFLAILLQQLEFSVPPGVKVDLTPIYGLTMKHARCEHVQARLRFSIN

[2] = tested on: Streptococcus sp. 'group A'; assay: growth inhibition of control SK(-) GAS strain, dose response, counter-screen for streptokinase expression inhibitor project, luminescence, kanamycin, BacTiterGlo, confirmation (AID 1900); type: functional, organism-based
[3] = inhibitors of intracellular T. cruzi replication, confirmation, NIH3T3 host cells, beta-gal luminescence (AID 2044); type: functional, cell-based;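 also: intracellular parasites grown in NIH/3T3 mouse fibroblasts as host cells; luminescent beta-galactosidase reporter signal from transgenic T. cruzi replicating inside host cells; inhibitors lower the luminescence signal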
[4] = cytotoxicity toward NIH3T3 fibroblasts, dose response, counter-screen, cell-based, ATP luminescence, mouse fibroblasts (AID 2010); type: functional;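 also: cells exposed to compound for about 90 hours before reading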
Streptokinase A = target: T3, Streptokinase A (Streptococcus pyogenes serotype M1, UniProt P10520); assay: S. pyogenes streptokinase expression inhibitors, potency, dose response, plasminogen activation absorbance, OD405 (AID 1914); type: functional, Streptococcus pyogenes M1 GAS;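 also: secreted streptokinase activity via plasminogen activation per viability signal from cell pellet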
T3 sequence (P10520 whole entry): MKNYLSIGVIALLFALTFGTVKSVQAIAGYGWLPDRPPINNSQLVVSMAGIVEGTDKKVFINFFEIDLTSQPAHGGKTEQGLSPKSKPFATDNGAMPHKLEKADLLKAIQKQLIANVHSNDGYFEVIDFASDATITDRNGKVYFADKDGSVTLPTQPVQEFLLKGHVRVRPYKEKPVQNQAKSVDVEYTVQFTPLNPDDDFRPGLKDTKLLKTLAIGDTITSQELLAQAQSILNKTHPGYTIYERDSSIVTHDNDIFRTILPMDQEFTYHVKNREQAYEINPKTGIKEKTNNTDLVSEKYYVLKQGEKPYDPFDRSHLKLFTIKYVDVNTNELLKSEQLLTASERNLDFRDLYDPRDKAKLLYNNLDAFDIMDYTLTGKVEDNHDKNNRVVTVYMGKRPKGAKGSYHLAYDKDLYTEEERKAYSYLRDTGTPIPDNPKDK

Streptococcus = assay: Group A Streptococcus viability loss, dose response, counter-screen for streptokinase expression inhibitor project, luminescence, BacTiterGlo (AID 1915); type: functional, organism-based;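 also: potency for reduction of bacterial viability or growth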
Cytochrome P450 2C19 = Cytochrome P450 2C19 (Homo sapiens, UniProt P33261); assay: Cytochrome panel assay with activity outcomes. Panel member name: p450-cyp2c19 Compounds with AC50 equal or less than 10 uM are considered active; type: functional; conditions: read-out: AC50
Chain of Cytochrome P450 2C19 (P33261 whole entry): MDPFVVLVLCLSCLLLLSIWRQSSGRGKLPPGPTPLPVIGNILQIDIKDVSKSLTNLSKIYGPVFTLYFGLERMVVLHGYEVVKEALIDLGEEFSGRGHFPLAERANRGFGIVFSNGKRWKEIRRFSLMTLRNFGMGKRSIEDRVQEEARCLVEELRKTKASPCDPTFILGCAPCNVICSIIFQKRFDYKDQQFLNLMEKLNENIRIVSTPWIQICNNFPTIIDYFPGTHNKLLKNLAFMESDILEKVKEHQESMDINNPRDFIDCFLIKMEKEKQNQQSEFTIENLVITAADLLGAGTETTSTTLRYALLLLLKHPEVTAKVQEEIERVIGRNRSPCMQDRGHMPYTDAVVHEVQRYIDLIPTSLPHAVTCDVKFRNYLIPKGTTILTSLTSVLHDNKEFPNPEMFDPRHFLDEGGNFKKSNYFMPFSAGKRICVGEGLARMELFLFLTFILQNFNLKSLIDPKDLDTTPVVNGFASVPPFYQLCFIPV

Cytochrome P450 2C9 = Cytochrome P450 2C9 (Homo sapiens, UniProt P11712)
Chain of Cytochrome P450 2C9 (P11712 whole entry): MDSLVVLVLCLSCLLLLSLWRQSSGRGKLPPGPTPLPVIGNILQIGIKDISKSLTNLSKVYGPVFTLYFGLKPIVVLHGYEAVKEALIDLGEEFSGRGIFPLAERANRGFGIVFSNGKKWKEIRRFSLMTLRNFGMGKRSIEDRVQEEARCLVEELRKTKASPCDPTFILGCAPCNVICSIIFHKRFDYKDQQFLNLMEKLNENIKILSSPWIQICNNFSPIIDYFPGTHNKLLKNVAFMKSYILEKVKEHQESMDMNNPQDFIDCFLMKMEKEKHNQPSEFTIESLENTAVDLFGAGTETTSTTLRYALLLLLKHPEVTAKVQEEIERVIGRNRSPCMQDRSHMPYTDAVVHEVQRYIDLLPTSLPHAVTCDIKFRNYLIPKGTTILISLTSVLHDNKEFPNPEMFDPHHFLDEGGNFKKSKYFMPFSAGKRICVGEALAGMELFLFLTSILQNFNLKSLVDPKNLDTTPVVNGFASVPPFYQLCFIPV

[5] = Luminescence Cell-Based Dose Retest to Confirm Inhibitors of Cancer Stem Cells. [Related pubchem assays (depositor defined):AID2717, AID2721]; type: functional, Homo sapiens; conditions: Homo sapiens
Cytochrome P450 3A4 = Cytochrome P450 3A4 (Homo sapiens, UniProt P08684);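 also: CYP3A4 tested as one member of a cytochrome P450 panel screen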
Chain of Cytochrome P450 3A4 (P08684 whole entry): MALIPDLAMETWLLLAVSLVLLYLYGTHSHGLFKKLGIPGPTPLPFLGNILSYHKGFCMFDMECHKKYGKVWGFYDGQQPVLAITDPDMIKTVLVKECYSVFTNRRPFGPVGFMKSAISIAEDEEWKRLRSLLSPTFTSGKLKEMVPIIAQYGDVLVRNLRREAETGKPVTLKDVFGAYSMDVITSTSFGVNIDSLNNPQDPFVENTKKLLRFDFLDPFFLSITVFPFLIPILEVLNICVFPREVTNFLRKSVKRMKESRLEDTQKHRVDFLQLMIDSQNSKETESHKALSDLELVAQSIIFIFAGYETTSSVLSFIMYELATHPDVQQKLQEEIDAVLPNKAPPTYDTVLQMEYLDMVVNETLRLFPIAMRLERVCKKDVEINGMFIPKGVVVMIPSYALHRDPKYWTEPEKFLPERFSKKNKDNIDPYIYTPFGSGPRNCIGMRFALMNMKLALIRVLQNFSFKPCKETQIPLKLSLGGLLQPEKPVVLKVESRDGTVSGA

Row | SMILES | EC50 [1] | AC50 (Cytochrome P450 2D6) | further results
1 | CCS(=O)(=O)N1CCN(C(=O)c2ccccc2)CC1 | > 195 µM (not active) | – | –
2 | COc1nc(N)c(C#N)c(-c2ccc(N(C)CCC#N)cc2)c1C#N | 15.6 µM (active) | – | –
3 | Cc1cc(O)nc(CCl)n1 | > 195 µM (not active) | – | –
4 | C#C[C@@]1(O)CC[C@@H]2[C@@H]3CCC4=C(CCC(=O)C4)[C@H]3CC[C@]21C | – | 15.8 µM (inconclusive) | AC50 (Cytochrome P450 1A2): 12.6 µM (inconclusive)
5 | Cc1cc(C2(c3cc(C)c(NC(=O)CN4CCOCC4)c(C)c3)CCCCC2)cc(C)c1NC(=O)CN1CCOCC1 | > 195 µM (not active) | – | –
6 | Cc1ccc(S(=O)(=O)N(C)CC(=O)N2CCc3ccccc32)cc1 | > 195 µM (not active) | – | –
7 | Cc1ccnc(NC(c2ccsc2)c2ccc3ccc(C)nc3c2O)c1 (stereo not drawn) | > 195 µM (not active) | – | EC50 [2]: 10.6 µM (active); EC50 [3]: 1.64 µM (active); EC50 [4]: 9.38 µM (active); EC50 (Streptokinase A): > 150 µM (not active); EC50 (Streptococcus): 20.5 µM (active)
8 | CCC1CCCCN1CCCNC(=O)CSc1nc2nc(C)c(Cc3ccc(C)cc3)c(C)n2n1 (stereo not drawn) | > 195 µM (not active) | – | –
9 | CCOC(=O)c1c(NC(=O)COC(=O)c2nccnc2N)sc(C(=O)N(C)C)c1C | > 195 µM (not active) | – | –
10 | CCOc1nnc(C)c2c(C)n(-c3ccc(Cl)cc3)nc12 | – | 25.1 µM (inconclusive) | AC50 (Cytochrome P450 2C19): 31.6 µM (inconclusive); AC50 (Cytochrome P450 2C9): 25.1 µM (inconclusive)
11 | CC(C)Cn1cnc2c(SCc3ccc(Cl)cc3Cl)nc(N)nc21 | – | 7.94 µM (inconclusive) | AC50 (Cytochrome P450 2C9): 7.94 µM (inconclusive); AC50 (Cytochrome P450 1A2): 1.26 µM (inconclusive)
12 | CC(C)(C)C1CCc2c(sc(NC(=O)CSc3nc[nH]n3)c2C#N)C1 (stereo not drawn) | > 195 µM (not active) | – | AC50 [5]: 4.46 µM (active)
13 | C=CCn1cc(Cl)c(=O)n(CC=C)c1=O | – | 0.562 µM (inconclusive) | AC50 (Cytochrome P450 3A4): 25.1 µM (inconclusive); AC50 (Cytochrome P450 1A2): 14.1 µM (inconclusive)
14 | Cc1c(/N=C/c2ccco2)n(Cc2ccccc2)c2ccccc12 | – | 4.47 µM (inconclusive) | AC50 (Cytochrome P450 2C19): 2.82 µM (inconclusive)
